Source: article PMC10147923, “Pain-causing stinging nettle toxins target TMEM233 to modulate NaV1.7 function” (Nature Communications, 2023)
Several values for one entry are separate records, joined by “and”; a condition that tells them apart may be missing. Equal entries are not always repeated. Positions of bridges follow the written chain, without caps; N, C: chain ends. Residues, ends and D or L forms follow the SMILES beside them.

Tests used:
Type in all cases: cell-based
[1] = molecular target: NaV1.7/TRARG1 (Homo sapiens, UniProt Q15858+Q8IXB3)
[2] = molecular target: TMEM233 (Homo sapiens, UniProt B4DJY2); assay: Currents in Cos-1 cells transfected with TMEM233 only
Procedure: Whole-cell patch clamp experiments involving HEK293, COS-1, CHO, ND7/23, F11, SH-SY5Y and TE-671 cells were performed on a QPatch II automated electrophysiology platform (Sophion Bioscience, Ballerup, Denmark) as previously described. Cells at approximately 70–80% confluency were harvested from T75 flasks using TrypLE Express at 37 °C for 2–5 min and resuspended in DMEM with 25 mM HEPES (Sigma-Aldrich, NSW, Australia), 100 U/mL Penicillin-Streptomycin (Gibco) and 40 µg/mL trypsin inhibitor from Glycine max (soybean) (Sigma Aldrich) prior to recovery on a QStirrer (Sophion) for 30 min. 16-channel patch plates with a patch hole diameter of 1 μm and resistance of 2 ± 0.02 MΩ were used. Cell positioning and sealing parameters were as follows: positioning pressure −60 mbar, minimum seal resistance 0.1 GΩ, holding potential −100 mV, holding pressure −20 mbar. Whole-cell currents were filtered at 5 kHz and acquired at 25 kHz. Series resistance compensation was used and set to 70%.

[3] = molecular target: NaV1.7 (Homo sapiens, UniProt Q15858); details: ExTxA 100 nM; individual cells
Chain of NaV1.7 (Q15858 whole entry): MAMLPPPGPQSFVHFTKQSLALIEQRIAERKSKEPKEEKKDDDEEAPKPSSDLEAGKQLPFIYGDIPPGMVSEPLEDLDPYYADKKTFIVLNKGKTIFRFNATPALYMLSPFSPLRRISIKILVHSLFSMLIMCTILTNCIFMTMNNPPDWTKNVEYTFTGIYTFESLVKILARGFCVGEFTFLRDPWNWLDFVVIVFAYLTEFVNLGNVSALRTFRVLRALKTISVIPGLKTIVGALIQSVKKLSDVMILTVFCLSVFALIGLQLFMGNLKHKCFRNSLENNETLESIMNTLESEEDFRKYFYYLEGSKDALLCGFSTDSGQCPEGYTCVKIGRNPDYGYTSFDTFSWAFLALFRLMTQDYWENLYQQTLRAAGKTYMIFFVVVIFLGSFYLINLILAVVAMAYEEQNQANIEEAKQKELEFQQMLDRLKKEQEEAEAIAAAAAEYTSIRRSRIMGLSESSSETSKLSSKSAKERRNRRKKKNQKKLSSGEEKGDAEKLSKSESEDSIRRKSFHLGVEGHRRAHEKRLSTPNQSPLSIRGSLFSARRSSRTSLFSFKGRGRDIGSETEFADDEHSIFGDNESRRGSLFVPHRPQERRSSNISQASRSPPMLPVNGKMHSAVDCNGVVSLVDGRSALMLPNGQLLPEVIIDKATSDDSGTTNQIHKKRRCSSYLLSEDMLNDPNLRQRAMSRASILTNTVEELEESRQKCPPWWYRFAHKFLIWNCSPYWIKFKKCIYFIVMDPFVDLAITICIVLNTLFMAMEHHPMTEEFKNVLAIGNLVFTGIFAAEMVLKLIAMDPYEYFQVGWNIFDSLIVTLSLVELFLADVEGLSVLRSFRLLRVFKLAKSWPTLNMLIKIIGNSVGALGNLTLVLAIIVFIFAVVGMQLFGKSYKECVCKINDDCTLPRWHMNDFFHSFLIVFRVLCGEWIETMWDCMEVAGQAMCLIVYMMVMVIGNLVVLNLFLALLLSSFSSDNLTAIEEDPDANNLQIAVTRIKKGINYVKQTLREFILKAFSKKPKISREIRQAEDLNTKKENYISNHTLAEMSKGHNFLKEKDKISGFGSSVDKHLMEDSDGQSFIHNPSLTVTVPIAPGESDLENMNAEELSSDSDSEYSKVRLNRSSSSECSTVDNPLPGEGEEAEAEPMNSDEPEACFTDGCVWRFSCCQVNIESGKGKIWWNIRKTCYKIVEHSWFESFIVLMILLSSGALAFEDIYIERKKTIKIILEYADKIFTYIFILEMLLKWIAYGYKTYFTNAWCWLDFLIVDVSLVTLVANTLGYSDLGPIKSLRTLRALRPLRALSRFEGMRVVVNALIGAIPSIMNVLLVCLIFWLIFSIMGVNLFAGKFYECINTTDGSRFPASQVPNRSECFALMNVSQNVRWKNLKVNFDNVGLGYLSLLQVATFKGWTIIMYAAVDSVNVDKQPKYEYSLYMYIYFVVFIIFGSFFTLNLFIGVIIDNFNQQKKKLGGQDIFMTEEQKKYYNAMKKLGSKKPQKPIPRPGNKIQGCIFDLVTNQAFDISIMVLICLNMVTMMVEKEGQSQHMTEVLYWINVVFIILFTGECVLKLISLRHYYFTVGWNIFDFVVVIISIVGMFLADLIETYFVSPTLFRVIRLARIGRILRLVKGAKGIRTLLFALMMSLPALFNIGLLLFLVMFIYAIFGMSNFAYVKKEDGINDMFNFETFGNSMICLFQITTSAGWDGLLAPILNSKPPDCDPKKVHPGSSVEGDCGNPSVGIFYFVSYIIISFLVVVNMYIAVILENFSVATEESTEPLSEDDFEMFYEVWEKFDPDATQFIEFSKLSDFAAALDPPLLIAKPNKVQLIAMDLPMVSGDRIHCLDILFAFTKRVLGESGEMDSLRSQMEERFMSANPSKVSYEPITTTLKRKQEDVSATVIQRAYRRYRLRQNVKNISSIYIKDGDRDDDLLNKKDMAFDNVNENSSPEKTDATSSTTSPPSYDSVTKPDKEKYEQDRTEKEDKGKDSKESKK
Chain of NaV1.7 (Q07699 19-218, further chain): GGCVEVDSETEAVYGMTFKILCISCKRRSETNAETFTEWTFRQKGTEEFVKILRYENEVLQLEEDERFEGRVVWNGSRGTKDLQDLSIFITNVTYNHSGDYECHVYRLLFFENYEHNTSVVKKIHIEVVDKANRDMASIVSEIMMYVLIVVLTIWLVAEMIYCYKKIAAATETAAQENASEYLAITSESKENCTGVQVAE

Chain of NaV1.7/TRARG1 (Q07699 19-218): as the sequence (Q07699 19-218, further chain) above
Chain of NaV1.7/TRARG1 (Q15858 whole entry): as the sequence (Q15858 whole entry) above
Chain of NaV1.7/TRARG1 (Q8IXB3 whole entry): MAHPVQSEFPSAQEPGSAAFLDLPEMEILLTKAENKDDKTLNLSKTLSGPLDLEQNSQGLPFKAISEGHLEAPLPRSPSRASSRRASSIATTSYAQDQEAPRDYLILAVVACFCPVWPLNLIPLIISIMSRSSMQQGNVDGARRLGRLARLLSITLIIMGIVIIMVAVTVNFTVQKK
Chain of TMEM233 (B4DJY2 whole entry): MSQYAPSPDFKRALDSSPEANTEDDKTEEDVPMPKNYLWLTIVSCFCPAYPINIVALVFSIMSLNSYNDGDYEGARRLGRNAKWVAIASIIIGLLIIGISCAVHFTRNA

## CC[C@H](C)[C@@H]1NC(=O)[C@H](CCCNC(=N)N)NC(=O)[C@H](Cc2ccccc2)NC(=O)[C@H](CC(C)C)NC(=O)[C@H](CO)NC(=O)[C@@H]2CSSC[C@@H]3NC(=O)[C@H]([C@@H](C)O)NC(=O)[C@H](CSSC[C@H](NC(=O)[C@H](CCCNC(=N)N)NC(=O)[C@@H]4CCCN4C(=O)[C@@H](N)CC(C)C)C(=O)N[C@@H](CC(=O)O)C(=O)N[C@@H](CO)C(=O)N4CCC[C@H]4C(=O)N[C@@H](Cc4ccccc4)C(=O)N2)NC(=O)[C@H](CCCCN)NC(=O)[C@H](CC(=O)O)NC(=O)CNC(=O)[C@H](CSSC[C@@H](C(=O)N[C@H](C(=O)N2CCC[C@H]2C(=O)N[C@@H](CC(=O)O)C(=O)N[C@H](C(=O)O)C(C)C)C(C)C)NC(=O)[C@H](CC(C)C)NC(=O)CNC(=O)[C@H](Cc2ccccc2)NC(=O)[C@H]([C@@H](C)CC)NC(=O)[C@@H]2CCCN2C(=O)[C@H](CC(C)C)NC(=O)[C@@H]2CCCN2C(=O)[C@H](C(C)C)NC3=O)NC(=O)[C@H](CC(C)C)NC(=O)CNC1=O [ExTxA, excelsatoxin A] (H-LPRCDSPFCSLFRIGLCGDKCTCVPLPIFGLCVPDV-OH; disulfide 4-21, 9-23, 17-32)
[1]; Nav1.7/TRARG1, 95% CI -6.511 to -5.182, Fig 4g
  LogEC50: -5.623
[1]; Nav1.7/TRARG1, Fig 4g
  HillSlope: 0.6926
[1]; Nav1.7/TRARG1, best-fit, constraint Top < 1, Fig 4g
  Top: 1
[1]; co-expression with NaV1.7
  ExTxA-induced currents with TRARG1: resulted in ExTxA-induced persistent currents
[2]
  ExTxA-induced persistent current: -7.493 ± 8.833
[2]; cells lacking endogenous NaV currents
  ExTxA-induced currents, TMEM233 alone: did not result in either voltage-gated or ExTxA-induced currents
[3]
  hiPSC-derived sensory neurons persistent current (I40 ms/Ipeak): 0.1753 and 0.2081 and 0.0959 and 0.1857 and 0.092
